Legend:
Assay type in all cases: functional
SF-539 = assay: Cytotoxicity against Homo sapiens (human) SF539 cells after 48 hr by SRB assay; conditions: SF-539, 48 h
SR = assay: Cytotoxicity against Homo sapiens (human) SR cells after 48 hr by SRB assay
CCRF-CEM [1] = assay: Growth inhibition of Homo sapiens (human) CCRF-CEM cells at 10 uM after 48 hr by SRB assay; conditions: read-out: GI
IGROV-1 = assay: Cytotoxicity against Homo sapiens (human) IGROV1 cells after 48 hr by SRB assay; conditions: IGROV-1, 48 h
SF-295 = assay: Growth inhibition of Homo sapiens (human) SF295 cells at 10 uM after 48 hr by SRB assay; conditions: SF-295, 48 h, read-out: GI
EKVX [2] = assay: Cytotoxicity against Homo sapiens (human) EKVX cells after 48 hr by SRB assay
OVCAR-3 = assay: Cytotoxicity against Homo sapiens (human) OVCAR3 cells after 48 hr by SRB assay; conditions: OVCAR-3, 48 h
U-251 = assay: Growth inhibition of Homo sapiens (human) U251 cells at 10 uM after 48 hr by SRB assay; conditions: U-251, 48 h, read-out: GI
HCC 2998 [3] = assay: Cytotoxicity against Homo sapiens (human) HCC2998 cells after 48 hr by SRB assay; conditions: HCC 2998, 48 h
UO-31 = assay: Cytotoxicity against Homo sapiens (human) UO31 cells after 48 hr by SRB assay; conditions: UO-31, 48 h
A549 = assay: Growth inhibition of Homo sapiens (human) A549 cells at 10 uM after 48 hr by SRB assay; conditions: A549, 48 h, read-out: GI
K562 = assay: Growth inhibition of Homo sapiens (human) K562 cells at 10 uM after 48 hr by SRB assay; conditions: K562, 48 h, read-out: GI
HOP-62 [4] = assay: Growth inhibition of Homo sapiens (human) HOP62 cells at 10 uM after 48 hr by SRB assay; conditions: HOP-62, 48 h, read-out: GI
NCI-H460 = assay: Growth inhibition of Homo sapiens (human) NCI-H460 cells at 10 uM after 48 hr by SRB assay; conditions: NCI-H460, 48 h, read-out: GI
UACC-62 = assay: Cytotoxicity against Homo sapiens (human) UACC62 cells after 48 hr by SRB assay; conditions: UACC-62, 48 h
HCC 2998 [5] = assay: Growth inhibition of Homo sapiens (human) HCC2998 cells at 10 uM after 48 hr by SRB assay; conditions: HCC 2998, 48 h, read-out: GI
SNB-75 [6] = assay: Growth inhibition of Homo sapiens (human) SNB75 cells at 10 uM after 48 hr by SRB assay; conditions: SNB-75, 48 h, read-out: GI
COLO 205 = assay: Growth inhibition of Homo sapiens (human) COLO205 cells at 10 uM after 48 hr by SRB assay; conditions: COLO 205, 48 h, read-out: GI
EKVX [7] = assay: Growth inhibition of Homo sapiens (human) EKVX cells at 10 uM after 48 hr by SRB assay; conditions: read-out: GI
HL-60(TB) [8] = assay: Growth inhibition of Homo sapiens (human) HL-60(TB) cells at 10 uM after 48 hr by SRB assay; conditions: HL-60, 48 h, read-out: GI
A498 [9] = assay: Growth inhibition of Homo sapiens (human) A498 cells at 10 uM after 48 hr by SRB assay; conditions: A498, 48 h, read-out: GI
OVCAR-4 = assay: Cytotoxicity against Homo sapiens (human) OVCAR4 cells after 48 hr by SRB assay; conditions: OVCAR-4, 48 h
CAKI-1 = assay: Growth inhibition of Homo sapiens (human) CAKI-1 cells at 10 uM after 48 hr by SRB assay; conditions: CAKI-1, 48 h, read-out: GI
T47D = assay: Cytotoxicity against Homo sapiens (human) T47D cells after 48 hr by SRB assay
RPMI-8226 [10] = assay: Growth inhibition of Homo sapiens (human) RPMI8226 cells at 10 uM after 48 hr by SRB assay; conditions: RPMI-8226, 48 h, read-out: GI
SF-268 = assay: Cytotoxicity against Homo sapiens (human) SF268 cells after 48 hr by SRB assay; conditions: SF-268, 48 h
SK-MEL-5 = assay: Growth inhibition of Homo sapiens (human) SK-MEL-5 cells at 10 uM after 48 hr by SRB assay; conditions: SK-MEL-5, 48 h, read-out: GI
RPMI-8226 [11] = assay: Cytotoxicity against Homo sapiens (human) RPMI8226 cells after 48 hr by SRB assay; conditions: Homo sapiens, RPMI-8226, 48 h
HOP-62 [12] = assay: Cytotoxicity against Homo sapiens (human) HOP62 cells after 48 hr by SRB assay; conditions: HOP-62, 48 h
CCRF-CEM [13] = assay: Cytotoxicity against Homo sapiens (human) CCRF-CEM cells after 48 hr by SRB assay
HOP-92 [14] = assay: Growth inhibition of Homo sapiens (human) HOP92 cells at 10 uM after 48 hr by SRB assay; conditions: HOP-92, 48 h, read-out: GI
SNB-75 [15] = assay: Cytotoxicity against Homo sapiens (human) SNB75 cells after 48 hr by SRB assay; conditions: SNB-75, 48 h
A498 [16] = assay: Cytotoxicity against Homo sapiens (human) A498 cells after 48 hr by SRB assay; conditions: A498, 48 h
786-0 = assay: Growth inhibition of Homo sapiens (human) 786-0 cells at 10 uM after 48 hr by SRB assay; conditions: 786-0, 48 h, read-out: GI
HOP-92 [17] = assay: Cytotoxicity against Homo sapiens (human) HOP92 cells after 48 hr by SRB assay; conditions: HOP-92, 48 h
LOX IMVI = assay: Growth inhibition of Homo sapiens (human) LOXIMVI cells at 10 uM after 48 hr by SRB assay; conditions: read-out: GI
BT-549 = assay: Cytotoxicity against Homo sapiens (human) BT549 cells after 48 hr by SRB assay; conditions: BT-549, 48 h
HL-60(TB) [18] = assay: Cytotoxicity against Homo sapiens (human) HL-60(TB) cells after 48 hr by SRB assay; conditions: HL-60, 48 h
M14 = assay: Growth inhibition of Homo sapiens (human) M14 cells at 10 uM after 48 hr by SRB assay; conditions: M14, 48 h, read-out: GI
MDA-MB-231 = assay: Cytotoxicity against Homo sapiens (human) MDA-MB-231 cells after 48 hr by SRB assay; conditions: MDA-MB-231, 48 h
MDA-MB-435 = assay: Growth inhibition of Homo sapiens (human) MDA-MB-435 cells at 10 uM after 48 hr by SRB assay; conditions: MDA-MB-435, 48 h, read-out: GI

## Cn1cccc1-c1cc(-c2ccc(Br)cc2)n(C(=S)Nc2ccc(F)cc2)c(=O)c1C#N
SF-539
  GI50: > 100 µM
SR
  GI50: > 100 µM
CCRF-CEM [1]
  inhibition of growth at 10 µM: 48.3%
IGROV-1
  GI50: 22.9 µM
SF-295
  inhibition of growth at 10 µM: 40.2%
EKVX [2]
  GI50: 0.01 µM
  TGI: 0.03 µM
OVCAR-3
  GI50: > 100 µM
U-251
  inhibition of growth at 10 µM: 26.3%
HCC 2998 [3]
  GI50: > 100 µM
UO-31
  GI50: 13.8 µM
  LC50: 54.9 µM
  TGI: 27.5 µM
A549
  inhibition of growth at 10 µM: 47.8%
K562
  inhibition of growth at 10 µM: 60%
HOP-62 [4]
  inhibition of growth at 10 µM: 34.5%
NCI-H460
  inhibition of growth at 10 µM: 31.6%
UACC-62
  GI50: 72.4 µM
HCC 2998 [5]
  inhibition of growth at 10 µM: 27.6%
SNB-75 [6]
  inhibition of growth at 10 µM: 42.7%
COLO 205
  inhibition of growth at 10 µM: 45.6%
EKVX [7]
  inhibition of growth at 10 µM: 29.7%
HL-60(TB) [8]
  inhibition of growth at 10 µM: 82.3%
A498 [9]
  inhibition of growth at 10 µM: 27.6%
OVCAR-4
  GI50: > 100 µM
CAKI-1
  inhibition of growth at 10 µM: 30.3%
T47D
  GI50: > 100 µM
RPMI-8226 [10]
  inhibition of growth at 10 µM: 59.2%
SF-268
  GI50: 20.4 µM
SK-MEL-5
  inhibition of growth at 10 µM: 33.5%
RPMI-8226 [11]
  GI50: > 100 µM
HOP-62 [12]
  GI50: 37.1 µM
CCRF-CEM [13]
  GI50: > 100 µM
HOP-92 [14]
  inhibition of growth at 10 µM: 39.6%
SNB-75 [15]
  GI50: 38 µM
A498 [16]
  GI50: 17.8 µM
786-0
  inhibition of growth at 10 µM: 28.8%
HOP-92 [17]
  GI50: > 100 µM
LOX IMVI
  inhibition of growth at 10 µM: 23%
BT-549
  GI50: > 100 µM
HL-60(TB) [18]
  GI50: 14.5 µM
M14
  inhibition of growth at 10 µM: 29.1%
MDA-MB-231
  GI50: > 100 µM
MDA-MB-435
  inhibition of growth at 10 µM: 35.1%
